Source: article PMC3048380, “Crystal Structure of an Integron Gene Cassette-Associated Protein from Vibrio cholerae Identifies a Cationic Drug-Binding Module” (PLoS ONE, 2011)
Like-named read-outs stand apart in the source and are kept apart here.

Assays:
BmrR [1] = settings: equilibrium dialysis methods; read-out: Ligand binding affinity KD, BmrR wt; cited from earlier work
Cass2 = Cass2 (Vibrio cholerae, UniProt D0VX23); settings: tryptophan fluorescence quenching, 24°C, pH 7.5; read-out: Ligand binding affinity KD, Cass2 wt
Protocol: Fluorescence assays were used to detect binding of compounds to Cass2 and related mutants. Concentrated ligand solutions in Buffer B were titrated into a 400 µl sample of protein (180 nM in Buffer B) and Trp fluorescence monitored.
Fluorescence intensities were recorded at 22°C with a PerkinElmer LS55 fluorescence spectrophotometer using a 1 cm×0.2 cm quartz cell. […] Thus, fluorescence quenching was monitored by recording emission at 350 nm for all samples following excitation at 295 nm (slit widths 10 and 5 nm, respectively) with an integration time of 5 s. All readings were corrected for buffer background emission and sample dilution. Inner-filter effects were measured by titrating each compound into a 1.3 µM sample of tryptophan in Buffer B and the relative fluorescence quenching (ΔF) corrected as follows [64]:
ΔF = (F 0−F C (F W0/F WC))/F 0 where F 0 = fluorescence intensity of protein sample, F C = fluorescence intensity of protein with added compound, F W0 = fluorescence intensity of free tryptophan solution, F WC = fluorescence of tryptophan solution with added compound.
Standard deviation was calculated for the individual ΔF values from three independent experiments. […]

BmrR [2] = settings: isothermal titration calorimetry binding assays; read-out: Ligand binding affinity KD, BmrR wt; cited from earlier work
(E134Q)Cass2 = (E134Q)Cass2 (Vibrio cholerae, UniProt D0VX23, E134Q); settings: pH 7.5; read-out: Ligand binding affinity KD, Cass2 E134Q

Molecule	Kd (BmrR [1]) [nM]	Kd (Cass2) [nM]	Kd (BmrR [2]) [nM]	Kd ((E134Q)Cass2) [nM]
c1ccc([P+](c2ccccc2)(c2ccccc2)c2ccccc2)cc1 [tetraphenylphosphonium (TPP), tetraphenylphosphonium chloride]	100000	200 ± 80	74000 ± 20500	200 ± 130
benzalkonium chloride		100		300 ± 60
